The record followed here is ChEMBL document CHEMBL1134124, “Isoindolines: a new series of potent and selective endothelin-A receptor antagonists” (Bioorg Med Chem Lett, 2001).

Assay [1] has as its target T1, Endothelin receptor type B (Homo sapiens) (UniProt P24530).
T1 sequence (whole entry): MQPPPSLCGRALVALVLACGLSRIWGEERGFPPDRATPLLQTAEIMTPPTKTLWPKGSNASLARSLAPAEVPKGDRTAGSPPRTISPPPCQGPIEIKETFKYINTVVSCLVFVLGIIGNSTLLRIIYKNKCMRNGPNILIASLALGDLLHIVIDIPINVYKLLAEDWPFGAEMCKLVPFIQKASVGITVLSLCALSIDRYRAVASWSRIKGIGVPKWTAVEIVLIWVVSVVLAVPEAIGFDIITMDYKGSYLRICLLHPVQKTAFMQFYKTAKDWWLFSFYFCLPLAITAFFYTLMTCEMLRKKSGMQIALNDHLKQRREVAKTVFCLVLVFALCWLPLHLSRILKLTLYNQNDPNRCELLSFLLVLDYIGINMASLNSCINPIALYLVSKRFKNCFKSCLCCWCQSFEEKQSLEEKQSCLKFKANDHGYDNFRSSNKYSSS
Description: Inhibition of [125I]ET1 binding to CHO cells expressing human Endothelin B receptor at a concentration of 1 uM. It counts as cell-based.

In assay [2] the target is T2, Endothelin-1 receptor (Homo sapiens, UniProt P25101).
T2 sequence (P25101 whole entry): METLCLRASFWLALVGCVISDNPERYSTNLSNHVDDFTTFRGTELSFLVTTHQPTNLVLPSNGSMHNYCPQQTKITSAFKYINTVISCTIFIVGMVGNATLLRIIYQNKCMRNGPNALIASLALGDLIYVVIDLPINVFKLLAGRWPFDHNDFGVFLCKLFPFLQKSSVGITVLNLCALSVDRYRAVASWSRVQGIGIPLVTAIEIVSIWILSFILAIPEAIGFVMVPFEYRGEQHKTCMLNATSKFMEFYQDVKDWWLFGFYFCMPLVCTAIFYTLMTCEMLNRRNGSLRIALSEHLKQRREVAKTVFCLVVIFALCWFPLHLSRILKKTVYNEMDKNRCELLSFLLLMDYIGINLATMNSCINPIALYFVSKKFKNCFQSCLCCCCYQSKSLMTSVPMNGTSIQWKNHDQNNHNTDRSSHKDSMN
Description: In vitro inhibition of [125I]ET1 binding to CHO cells expressing recombinant human Endothelin A receptor. The class given is cell-based.

For a further assay, the species on record is Rattus norvegicus. Description: Tested for antagonising activity against ET-1 induced contraction of rat aorta. It counts as functional.
The target in assay [3] is T2, Endothelin-1 receptor. Description: Tested for in vitro inhibition of [125I]ET1 binding to CHO cells expressing human Endothelin A receptor. It counts as cell-based.
The target of assay [4] is T3, Endothelin receptor type B (Homo sapiens, UniProt P24530).
T3 sequence (P24530 whole entry): T1 sequence (whole entry)
Description: Inhibition of [125I]-ET-1 binding to CHO cells expressing human Endothelin B receptor […]. The class given is cell-based.

Where only a bound is given, the exact number is not on record here.

`CCOc1ccc2c(c1)[C@H](c1ccc(OC)cc1OCC(=O)O)N(CC(=O)O)[C@@H]2c1ccc2c(c1)OCO2` displayed an inhibition in assay [1] of 52%. In addition, the IC50 at Endothelin-1 receptor [2] stood at 4.1 nM.

In assay [1], `CCOc1ccc2c(c1)[C@@H](c1cccc(OC)c1OCC(=O)O)N(CC(=O)O)[C@@H]2c1ccc2c(c1)OCO2` showed an inhibition of 12%. In addition, the IC50 at Endothelin-1 receptor [2] stood at 85 nM. Taken in the same sequence, the figures for `CCOc1ccc2c(c1)[C@@H](c1ccc(OC)cc1O)N(CC(=O)O)[C@@H]2c1ccc2c(c1)OCO2` were 4% and 77 nM. The like results for `CCCOc1ccc2c(c1)[C@H](c1ccc(OC)cc1)N(CC(=O)O)[C@@H]2c1ccc(OC)cc1OCC(=O)O` were, in that order, 0% and above 10000 nM.

In assay [1], `CCOc1ccc2c(c1)[C@@H](c1cc(OC)c(OC)c(OC)c1OCC(=O)O)N(CC(=O)O)[C@@H]2c1ccc2c(c1)OCO2` came in with an inhibition of 1%. Besides, the IC50 on Endothelin-1 receptor [2] came to 310 nM. For the molecule `CCOc1ccc2c(c1)[C@H](c1cc(OC)c(OC)c(OC)c1OCC(=O)O)N(CC(=O)O)[C@@H]2c1ccc2c(c1)OCO2`, the inhibition in assay [1] came out at 10%. Further, the IC50 on Endothelin-1 receptor [2] is 330 nM.

`CCOc1ccc2c(c1)[C@@H](c1ccc(OC)cc1OCc1nn[nH]n1)N(CC(=O)O)[C@@H]2c1ccc2c(c1)OCO2` came in with an inhibition in assay [1] of 0%. For `CCOc1ccc2c(c1)[C@@H](c1ccc(OC)c(OC)c1OCC(=O)O)N(CC(=O)O)[C@@H]2c1ccc2c(c1)OCO2`, the inhibition in assay [1] amounted to 2%. The IC50 on Endothelin-1 receptor [2] is 6.1 nM.

Molecule `CCOc1ccc2c(c1)[C@H](c1ccc(OC)cc1OCc1nn[nH]n1)N(CC(=O)O)[C@@H]2c1ccc2c(c1)OCO2` gave an inhibition in assay [1] of 37%.

Consider `CCCOc1ccc2c(c1)[C@@H](c1ccc(OC)cc1)N(CC(=O)O)[C@@H]2c1ccc2c(c1)OCO2`, for which, on Endothelin-1 receptor [2], the IC50 is 120 nM.

On to `CCOc1ccc2c(c1)[C@H](c1cc(OC)c(OC)c(OC)c1)N(c1nn[nH]n1)[C@@H]2c1ccc2c(c1)OCO2`, for which the inhibition in assay [1] was found to be 0%. The half-inhibitory concentration (IC50) on Endothelin-1 receptor [2] was above 10000 nM. In the case of `CCOc1ccc2c(c1)[C@H](c1cc(OC)c(OC)c(OC)c1)N(CC(=O)O)[C@@H]2c1ccc2c(c1)OCO2`, in assay [1], the inhibition was determined as 15%. With `CCOc1ccc2c(c1)[C@H](c1cccc(OC)c1OCC(=O)O)N(CC(=O)O)[C@@H]2c1ccc2c(c1)OCO2`, the inhibition in assay [1] worked out at 31%. Moreover, on Endothelin-1 receptor [2], the IC50 was 110 nM. `CCOc1ccc2c(c1)[C@H](c1ccc(OC)cc1OCC(=O)O)N(C(=O)C(=O)O)[C@@H]2c1ccc2c(c1)OCO2` showed an inhibition in assay [1] of 0%. Also, the IC50 on Endothelin-1 receptor [2] was above 10000 nM.

With `CCOc1ccc2c(c1)[C@@H](c1ccc(OC)cc1OCC(=O)O)N(C(=O)C(=O)O)[C@@H]2c1ccc2c(c1)OCO2`, the negative-log KB (pKB) in the assay listed under Rattus norvegicus is on record as 7.7. In assay [1], this molecule yielded an inhibition of 11%. For the same molecule, the IC50 at Endothelin-1 receptor [2] amounted to 12 nM. The molecule `CCCOc1ccc2c(c1)[C@@H](c1ccc(OC)cc1)N(CC(=O)O)[C@@H]2c1ccc(OC)cc1OCC(=O)O` gave an inhibition in assay [1] of 0%. The 50% inhibitory concentration (IC50) at Endothelin-1 receptor [2] is above 10000 nM. For the molecule `CCOc1ccc2c(c1)[C@@H](c1ccc(OC)cc1OCc1nnn[nH]1)N(CC(=O)O)[C@@H]2c1ccc2c(c1)OCO2`, at Endothelin-1 receptor [2], the IC50 worked out at 29 nM. `CCOc1ccc2c(c1)[C@@H](c1ccc(OC)cc1OCCCC(=O)O)N(CC(=O)O)[C@@H]2c1ccc2c(c1)OCO2` had an inhibition in assay [1] of 37%. The IC50 on Endothelin-1 receptor [2] was 22 nM. The like results for `CCOc1ccc2c(c1)[C@H](c1ccc(OC)cc1)N(CC(=O)O)[C@@H]2c1ccc2c(c1)OCO2` were, in that order, 23% and 95 nM. In the case of `CCCOc1ccc2c(c1)[C@H](c1ccc(OC)cc1OCC(=O)O)[C@@H](C(=O)O)[C@@H]2c1ccc2c(c1)OCO2`, the Ki on Endothelin-1 receptor [3] amounted to 0.43 nM; in assay [4] it was 14.7 nM. The molecule `CCOc1ccc2c(c1)[C@H](c1ccc(OC)cc1O)N(CC(=O)O)[C@@H]2c1ccc2c(c1)OCO2` gave an inhibition in assay [1] of 13%. The IC50 on Endothelin-1 receptor [2] worked out at 58 nM. Taken in the same sequence, the figures for `CCOc1ccc2c(c1)[C@@H](c1ccc(OC)cc1OCC(C)(C)C(=O)O)N(CC(=O)O)[C@@H]2c1ccc2c(c1)OCO2` were 1% and 68 nM.

With `CCOc1ccc2c(c1)[C@H](c1ccc(OC)cc1OCc1nnn[nH]1)N(CC(=O)O)[C@@H]2c1ccc2c(c1)OCO2`, the 50% inhibitory concentration (IC50) at Endothelin-1 receptor [2] is above 1000 nM. Molecule `CCOc1ccc2c(c1)[C@@H](c1ccc(OC)cc1OCC(=O)O)N(CC(=O)O)[C@@H]2c1ccc2c(c1)OCO2` had an inhibition in assay [1] of 15%. Besides, at Endothelin-1 receptor [2], the 50% inhibitory concentration (IC50) turned out to be 5.4 nM. On to `CCOc1ccc2c(c1)[C@@H](c1ccc(OC)cc1OCC(=O)O)N(c1nn[nH]n1)[C@@H]2c1ccc2c(c1)OCO2`, for which the inhibition in assay [1] amounted to 17%. Moreover, the IC50 at Endothelin-1 receptor [2] came to 31 nM. In assay [1], `COc1ccc([C@@H]2c3cc(OC)ccc3[C@@H](c3ccc4c(c3)OCO4)N2CC(=O)O)cc1` showed an inhibition of 1%. Moreover, the half-inhibitory concentration (IC50) on Endothelin-1 receptor [2] turned out to be 3300 nM. The like results for `CCOc1ccc2c(c1)[C@@H](c1ccc(OC)cc1OCCO)N(CC(=O)O)[C@@H]2c1ccc2c(c1)OCO2` were, in that order, 6% and above 10000 nM.

Turning to `CCOc1ccc2c(c1)[C@@H](c1cc(OC)c(OC)c(OC)c1)N(CC(=O)O)[C@@H]2c1ccc2c(c1)OCO2`, the inhibition in assay [1] worked out at 17%. For the same molecule, the IC50 on Endothelin-1 receptor [2] turned out to be 66 nM. The like results for `CCOc1ccc2c(c1)[C@H](c1ccc(OC)c(OC)c1OCC(=O)O)N(CC(=O)O)[C@@H]2c1ccc2c(c1)OCO2` were, in that order, 27% and 96 nM. The like results for `CCOc1ccc2c(c1)[C@H](c1ccc(OC)cc1OCC(C)(C)C(=O)O)N(CC(=O)O)[C@@H]2c1ccc2c(c1)OCO2` were, in that order, 34% and 14 nM.

With `CCOc1ccc2c(c1)[C@@H](c1ccc(OC)cc1)N(CC(=O)O)[C@@H]2c1ccc2c(c1)OCO2`, in assay [1], the inhibition amounted to 9%. For the same molecule, at Endothelin-1 receptor [2], the IC50 is 96 nM.

A word on the inhibition: it is the share of the control response that was lost under treatment. A high value points to a strong effect. In general, IC50 refers to the concentration at which inhibition is half-maximal. The term pKB denotes the negative decadic logarithm of the KB, by convention in mol/L. A lower pKB goes with a high KB. What is called Ki is a measure of affinity in units of concentration, obtained from inhibition or displacement.
